Tested on: Caco-2 cells

permeability (Papp): ≤ 1 ×10⁻⁶ cm/s
Substance: Lucifer yellow [LY]
